Experimental data taken from patent US9782399B2, “Pharmaceutical compositions which inhibit FKBP52-mediated regulation of androgen receptor function and methods of using same” (The United States of America, as represented by the …, priority 2009, dated 2017).

System: FKBP52-enhanced AR function
Experiment: AR-mediated luciferase reporter assay in 52KO MEF cells
Assay type: cell-based, murine
Details: compound 1 hour, then DHT 16 hours
Protocol: FIG. 5B is a bar graph showing data from an experiment where 52KO MEF cells were treated at 50% confluency with a range of concentrations of Compound 2, and cell numbers were counted by trypan blue exclusion after 24 hours. FIG. 5C depicts Western blots on the same cell lysates from FIG. 5B, with compound 2 concentrations starting at 0, and increasing from about 0.1, 1, 10, to 100 μM.
To further characterize the compounds of interest selected from the yeast library assay, the inventors created a mammalian model system, comprising a receptor-mediated luciferase reporter assay, using in a murine embryonic fibroblast cell line (MEF) which has the gene for FKBP52 knocked out (52KO MEFs). […] To control for specificity and general toxicity, the inventors assessed the effects of the inhibitors on receptor function in the absence of FKBP52. […] The half maximal lethal dose (LD50) was also determined for all cell types used in these studies. The LD50 was determined by performing dose response curves in which the measure of toxicity will be cell death (via trypan blue exclusion). […]
β-galactosidase activity was measured by addition of 100 μl Tropix Gal-Screen assay reagent (Applied Biosystems, Foster City, Calif.) to about 6 μl lysate in an opaque 96-well plate. […]

For `Cc1ccc(NC(=O)c2ccccc2C(=O)O)cc1C` [Compound 1], the “inhibition of FKBP52-enhanced AR function in mammalian cells” value was “consistent from yeast to mammalian cells”.
